Test results from patent publication US20250313563A1, “GLYCOGEN SYNTHASE KINASE 3 INHIBITORS AND USES THEREOF” (The Broad Institute, Inc., priority 2022, published 2025).
Where two headings read alike, the source gives them in different places.

Assays:
[1] = target: GSK3b (GST-full length GSK3b) (Homo sapiens (Human), UniProt P49841); assay: GSK3b TR-FRET kinase assay; assay type: biochemical
Summary of the method: (§1)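 Readout: anti-pSer641 Tb antibody/streptavidin-d2 signal after 60 min, expressed as 665/615 ratio and fitted versus log concentration for IC50. Enzyme: 1 nM GST-GSK3 (α or β), compound-preincubated 30 min. Conditions: pH 7.5 Tris buffer with MgCl2, DTT, BSA; ATP at 4 or 2 μM, or 1 mM; 100 min.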

[2] = target: GSK3α (GST-full length GSK3α) (Homo sapiens (Human), UniProt P49840); assay: GSK3α TR-FRET kinase assay; assay type: biochemical
Summary of the method: as §1

[3] = 1 nM GSK3b, 2 μM ATP, 30 minute preincubation, read-out: GSK3-B TR-FRET BIOCHEMICAL (TR-FRET), IC50
[4] = 1 nM GSK3α, 4 μM ATP, 30 minute preincubation, read-out: GSK3-A TR-FRET BIOCHEMICAL (TR-FRET), IC50
[5] = 1 nM GSK3b, 2 μM ATP, 30 minute preincubation, Table 16, read-out: GSK3-B TR-FRET BIOCHEMICAL (TR-FRET)
[6] = 1 nM GSK3α, 4 μM ATP, 30 minute preincubation, Table 16, read-out: GSK3-A TR-FRET BIOCHEMICAL (TR-FRET)
[7] = 1 nM GSK3b, 2 μM ATP, 30 minute preincubation, Table 16, read-out: GSK3-B TR-FRET BIOCHEMICAL (TR-FRET), IC50
[8] = 1 nM GSK3α, 4 μM ATP, 30 minute preincubation, Table 16, read-out: GSK3-A TR-FRET BIOCHEMICAL (TR-FRET), IC50
[9] = 1 nM GSK3b, 2 μM ATP, 30 minute preincubation, geometric mean, read-out: GSK3-B TR-FRET BIOCHEMICAL (TR-FRET), GMean, IC50
[10] = read-out: GSK3-B (TR-FRET 1 mM ATP), GMean, IC50, 1 mM ATP, geometric mean
[11] = 1 nM GSK3α, 4 μM ATP, 30 minute preincubation, geometric mean, read-out: GSK3-A TR-FRET BIOCHEMICAL (TR-FRET), GMean, IC50
[12] = read-out: GSK3-A (TR-FRET 1 mM ATP), GMean, IC50, 1 mM ATP, geometric mean
[13] = GSK3-B (TR-FRET 1 mM ATP), GMean, IC50, 1 mM ATP, geometric mean
[14] = GSK3-A (TR-FRET 1 mM ATP), GMean, IC50, 1 mM ATP, geometric mean

Chain of GSK3α (GST-full length GSK3α) (P49840 whole entry): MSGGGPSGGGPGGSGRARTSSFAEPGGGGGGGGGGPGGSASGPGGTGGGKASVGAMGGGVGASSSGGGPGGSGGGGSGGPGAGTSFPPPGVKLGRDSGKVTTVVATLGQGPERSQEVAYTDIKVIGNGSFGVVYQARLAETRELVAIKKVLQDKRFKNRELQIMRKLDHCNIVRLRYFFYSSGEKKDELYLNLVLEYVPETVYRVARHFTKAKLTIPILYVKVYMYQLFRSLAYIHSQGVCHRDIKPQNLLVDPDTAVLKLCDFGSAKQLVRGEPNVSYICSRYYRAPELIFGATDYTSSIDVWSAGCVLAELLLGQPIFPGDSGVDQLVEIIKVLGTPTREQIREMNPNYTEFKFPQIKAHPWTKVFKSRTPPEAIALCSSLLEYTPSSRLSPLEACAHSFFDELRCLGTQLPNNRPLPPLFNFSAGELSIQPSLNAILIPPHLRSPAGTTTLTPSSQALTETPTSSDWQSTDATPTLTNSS
Chain of GSK3b (GST-full length GSK3b) (P49841 whole entry): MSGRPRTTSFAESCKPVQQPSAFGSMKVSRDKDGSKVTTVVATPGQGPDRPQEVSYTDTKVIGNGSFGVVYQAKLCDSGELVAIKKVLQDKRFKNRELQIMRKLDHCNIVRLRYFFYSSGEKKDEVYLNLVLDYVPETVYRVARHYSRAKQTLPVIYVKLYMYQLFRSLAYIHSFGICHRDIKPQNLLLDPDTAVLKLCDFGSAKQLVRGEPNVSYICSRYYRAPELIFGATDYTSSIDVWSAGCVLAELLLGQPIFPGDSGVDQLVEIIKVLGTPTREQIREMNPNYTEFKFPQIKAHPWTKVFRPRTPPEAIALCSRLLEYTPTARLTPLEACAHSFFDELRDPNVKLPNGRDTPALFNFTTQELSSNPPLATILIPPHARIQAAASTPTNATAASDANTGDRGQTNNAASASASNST

## CC1(C)CC(=O)C2=C(C1)Nc1n[nH]cc1C21COC2(CN(C(=O)C3CCOCC3)C2)C1 (stereo not drawn) [Compound 945407]
[1]; [3]
  IC50: 0.1 to 1 µM
[2]; [4]
  IC50: ≤ 0.1 µM

## CC1(C)CC(=O)C2=C(C1)Nc1n[nH]cc1C21CCCN(CC(F)(F)F)CC1 (stereo not drawn) [Compound 889576]
[1]; [5]
  IC50: 0.1 to 1 µM
[2]; [6]
  IC50: 0.1 to 1 µM

## CC[C@]1(c2cccc(N(C)c3cccc(OC)n3)c2)C2=C(CC(C)(C)CC2=O)Nc2n[nH]cc21 [Compound 932666]
[1]; [5]
  IC50: 0.1 to 1 µM
[2]; [6]
  IC50: ≤ 0.1 µM

## CN1CC2(C1)C1=C(CC(C)(C)CC1=O)Nc1n[nH]cc12 [Compound 913264]
[1]; [5]
  IC50: ≤ 0.1 µM
[2]; [6]
  IC50: ≤ 0.1 µM

## CCC1(c2cccc(-c3cnn(CC4CCOC4)c3)c2)C2=C(CC(C)(C)NC2=O)Nc2n[nH]cc21 (stereo not drawn) [Compound 951836]
[1]; [7]
  IC50: 1 to 5 µM
[2]; [8]
  IC50: 0.1 to 1 µM

## CCC1(c2cccc(C(F)(F)F)c2)C2=C(CCN(C(C)C)C2=O)Nc2n[nH]cc21 (stereo not drawn) [Compound 825755]
[1]; [3]
  IC50: 0.1 to 1 µM
[2]; [4]
  IC50: ≤ 0.1 µM

## CC[C@]1(c2cccc(-c3ccnc(C)c3)c2)C2=C(CC(C)(C)NC2=O)Nc2n[nH]c(Cl)c21 [Compound 949421]
[1]; [7]
  IC50: > 5 µM
[2]; [8]
  IC50: 0.1 to 1 µM

## CCC1(c2cccc(N3CCCC3)c2)C2=C(CC(C)(C)CC2=O)Nc2n[nH]c(C(F)(F)F)c21 (stereo not drawn) [Compound 819575]
[1]; [9]
  IC50: ≤ 0.1 µM
[1]; [10]
  IC50: ≤ 0.1 µM
[2]; [11]
  IC50: 0.1 to 1 µM
[2]; [12]
  IC50: ≤ 0.1 µM

## Cc1cccc(C2(C)C3=C(CC(C)(C)CC3=O)Nc3n[nH]cc32)c1 (stereo not drawn) [Compound 785736]
[1]; [9]
  IC50: 0.1 to 1 µM
[2]; [11]
  IC50: ≤ 0.1 µM

## CC[C@]1(c2cccc(-c3cnn(C)c3C)c2)C2=C(CC(C)(C)NC2=O)Nc2n[nH]cc21 [Compound 945608]
[1]; [3]
  IC50: 0.1 to 1 µM
[2]; [4]
  IC50: ≤ 0.1 µM

## CCC1(c2cccc(-c3ccnc(C)c3)c2)C2=C(CC(C)(C)NC2=O)Nc2n[nH]c(C(F)F)c21 (stereo not drawn) [Compound 949169]
[1]; [9]
  IC50: ≤ 0.1 µM
[1]; [10]
  IC50: 1 to 5 µM
[2]; [11]
  IC50: ≤ 0.1 µM
[2]; [12]
  IC50: 0.1 to 1 µM

## CC[C@]1(c2cccc(S(=O)(=O)C3CC3)c2)C2=C(CC(C)(C)NC2=O)Nc2n[nH]cc21 [Compound 945999]
[1]; [3]
  IC50: ≤ 0.1 µM
[2]; [4]
  IC50: ≤ 0.1 µM

## CCn1nc(C)c(S(=O)(=O)N2CCC3(CC2)C2=C(CC(C)(C)CC2=O)Nc2n[nH]cc23)c1C [Compound 945679]
[1]; [5]
  IC50: 1 to 5 µM
[2]; [6]
  IC50: 0.1 to 1 µM

## CC[C@@]1(c2cccc(-c3ccnc(C)c3F)c2)C2=C(CC(C)(C)CC2=O)Nc2n[nH]c(C)c21 [Compound 927340]
[1]; [7]
  IC50: > 5 µM
[2]; [8]
  IC50: > 5 µM

## Cc1cnccc1[C@H]1CC[C@@]2(CC1)C1=C(CC(C)(C)CC1=O)Nc1n[nH]cc12 [Compound 949318]
[1]; [5]
  IC50: 0.1 to 1 µM
[2]; [6]
  IC50: 0.1 to 1 µM

## Cc1cc(C)cc(C(=O)N2CC3(C2)C[C@]2(CO3)C3=C(CC(C)(C)CC3=O)Nc3n[nH]cc32)c1 [Compound 948223]
[1]; [3]
  IC50: ≤ 0.1 µM
[1]; [10]
  IC50: 0.1 to 1 µM
[2]; [4]
  IC50: ≤ 0.1 µM
[2]; [12]
  IC50: 0.1 to 1 µM

## CC[C@]1(c2cccc(-c3cnn4ccncc34)c2)C2=C(CC(C)(C)NC2=O)Nc2n[nH]cc21 [Compound 952565]
[1]; [7]
  IC50: 0.1 to 1 µM
[1]; [10]
  IC50: > 5 µM
[2]; [8]
  IC50: ≤ 0.1 µM
[2]; [12]
  IC50: 1 to 5 µM

## CC[C@@]1(c2cccc(N(C)c3ncccn3)c2)C2=C(CC(C)(C)NC2=O)Nc2n[nH]c(F)c21 [Compound 949648]
[1]; [7]
  IC50: ≤ 0.1 µM
[1]; [10]
  IC50: 1 to 5 µM
[2]; [8]
  IC50: ≤ 0.1 µM
[2]; [12]
  IC50: ≤ 0.1 µM

## CCC1(c2cccc(-c3ccnc4c3CCCC4)c2)C2=C(CC(C)(C)CC2=O)Nc2n[nH]cc21 (stereo not drawn) [Compound 932625]
[1]; [7]
  IC50: ≤ 0.1 µM
[2]; [8]
  IC50: ≤ 0.1 µM

## CC[C@@]1(c2ccccc2)C2=C(CC(C)(C)[C@@H](F)C2=O)Nc2n[nH]cc21 [Compound 957406]
[1]; [5]
  IC50: > 5 µM
[2]; [6]
  IC50: > 5 µM

## CC1(C)CC(=O)C2=C(C1)Nc1n[nH]cc1C21CCN(S(=O)(=O)c2cnccc2C(F)(F)F)CC1 [Compound 947463]
[1]; [5]
  IC50: 0.1 to 1 µM
[2]; [6]
  IC50: ≤ 0.1 µM

## CC1(C)CC(=O)C2=C(C1)Nc1n[nH]cc1[C@@]21CCN(S(=O)(=O)c2cccc(F)c2)C1 [Compound 951862]
[1]; [5]
  IC50: ≤ 0.1 µM
[2]; [6]
  IC50: ≤ 0.1 µM

## CC[C@H]1C[C@@]2(CCO1)C1=C(CC(C)(C)CC1=O)Nc1n[nH]cc12 [Compound 907329]
[1]; [7]
  IC50: 1 to 5 µM
[2]; [8]
  IC50: 0.1 to 1 µM

## CC1(C)CC(=O)C2=C(C1)Nc1n[nH]cc1[C@@]21CCN(S(=O)(=O)c2ccccc2)C1 [Compound 951788]
[1]; [5]
  IC50: ≤ 0.1 µM
[1]; [13]
  IC50: 1 to 5 µM
[2]; [6]
  IC50: ≤ 0.1 µM
[2]; [14]
  IC50: 0.1 to 1 µM

## CC1(C)CC(=O)C2=C(C1)Nc1n[nH]cc1C21CCN(S(C)(=O)=O)CC1 [Compound 880776]
[1]; [5]
  IC50: ≤ 0.1 µM
[2]; [6]
  IC50: ≤ 0.1 µM

## CCC1(c2cccc(C(F)(F)F)c2)C2=C(CCN(Cc3ccccc3)C2=O)Nc2n[nH]cc21 (stereo not drawn) [Compound 897749]
[1]; [3]
  IC50: > 5 µM
[2]; [4]
  IC50: 0.1 to 1 µM

## C[C@@H]1CC[C@]2(C1)C1=C(CC(C)(C)CC1=O)Nc1n[nH]cc12 [Compound 897750]
[1]; [5]
  IC50: ≤ 0.1 µM
[2]; [6]
  IC50: ≤ 0.1 µM

## CCC1(c2cccc(-c3cnnc(C)c3)c2)C2=C(CC(C)(C)NC2=O)Nc2n[nH]cc21 (stereo not drawn) [Compound 943496]
[1]; [3]
  IC50: 1 to 5 µM
[2]; [4]
  IC50: ≤ 0.1 µM

## Cn1cc(-c2cccc([C@@]3(C)C4=C(CC(C)(C)CC4=O)Nc4n[nH]c(CC(C)(C)C)c43)c2)cn1 [Compound 126367]
[1]; [10]
  IC50: > 5 µM
[2]; [12]
  IC50: > 5 µM

## COc1cccc(S(=O)(=O)N2CC3(C2)C2=C(CC(C)(C)CC2=O)Nc2n[nH]cc23)c1 [Compound 918276]
[1]; [5]
  IC50: ≤ 0.1 µM
[2]; [6]
  IC50: ≤ 0.1 µM

## CCC1(c2cccc(-c3cn(C)nc3C)c2)C2=C(CC(C)(C)NC2=O)Nc2n[nH]cc21 (stereo not drawn) [Compound 944030]
[1]; [3]
  IC50: ≤ 0.1 µM
[2]; [4]
  IC50: ≤ 0.1 µM

## CC[C@]1(c2cccc(S(=O)(=O)CC3CC3)c2)C2=C(CC(C)(C)NC2=O)Nc2n[nH]c(C(F)(F)F)c21 [Compound 949175]
[1]; [9]
  IC50: ≤ 0.1 µM
[1]; [10]
  IC50: ≤ 0.1 µM
[2]; [11]
  IC50: ≤ 0.1 µM
[2]; [12]
  IC50: ≤ 0.1 µM

## CC[C@@]1(c2ccccc2)C2=C(Nc3n[nH]cc31)[C@H](F)C(C)(C)CC2=O [Compound 957197]
[1]; [5]
  IC50: 1 to 5 µM
[1]; [13]
  IC50: > 5 µM
[2]; [6]
  IC50: 0.1 to 1 µM
[2]; [14]
  IC50: > 5 µM

## CC(=O)N1CC[C@@]2(C1)C[C@]1(CO2)C2=C(CC(C)(C)CC2=O)Nc2n[nH]cc21 [Compound 948320]
[1]; [3]
  IC50: 1 to 5 µM
[2]; [4]
  IC50: 0.1 to 1 µM

## COCc1ccc(S(=O)(=O)N2CCC3(CC2)C2=C(CC(C)(C)CC2=O)Nc2n[nH]cc23)cc1 [Compound 947250]
[1]; [5]
  IC50: ≤ 0.1 µM
[2]; [6]
  IC50: ≤ 0.1 µM

## CC1(C)CC(=O)C2=C(C1)Nc1n[nH]cc1C21COC2(CN(C(=O)c3cccc(F)c3)C2)C1 (stereo not drawn) [Compound 947283]
[1]; [3]
  IC50: ≤ 0.1 µM
[2]; [4]
  IC50: ≤ 0.1 µM

## CCC1(c2cccc(-c3cnnn3C)c2)C2=C(CC(C)(C)CC2=O)Nc2n[nH]cc21 (stereo not drawn) [Compound 947824]
[1]; [5]
  IC50: 1 to 5 µM
[2]; [6]
  IC50: 0.1 to 1 µM

## CC[C@]1(c2cccc(OC)c2)C2=C(CC(C)(C)NC2=O)Nc2n[nH]c(C)c21 [Compound 949328]
[1]; [7]
  IC50: > 5 µM
[2]; [8]
  IC50: 1 to 5 µM

## CC[C@@]1(c2cccc(-c3ccnc4c3CCC4)c2)C2=C(CC(C)(C)CC2=O)Nc2n[nH]cc21 [Compound 945619]
[1]; [5]
  IC50: > 5 µM
[2]; [6]
  IC50: 1 to 5 µM

## CC1(C)CC(=O)C2=C(C1)Nc1n[nH]cc1C21CN(c2ccc(C(F)(F)F)cc2)C1 [Compound 945478]
[1]; [5]
  IC50: 0.1 to 1 µM
[2]; [6]
  IC50: 0.1 to 1 µM
